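Method: 48-hour compound exposure of cells in 96-well plates, five concentrations, linear interpolation of endpoints. At the GI50, growth is halved.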 The source made the active and inactive calls. Cut-off read from the data, not from the text of the source: active = GI50 up to about 1.1 µM and inactive = higher.
Experiments:
Assay in all cases: NCI-60 cell line screen, 48 h
[1] = test system: SK-MEL-28
[2] = test system: OVCAR-3
[3] = test system: U-251
[4] = test system: SR
[5] = test system: MDA-N
[6] = test system: HOP-92
[7] = test system: NCI-H23
[8] = test system: HCT-15
[9] = test system: SN12C
[10] = test system: COLO 205
[11] = test system: NCI/ADR-RES
[12] = test system: NCI-H522
[13] = test system: OVCAR-8
[14] = test system: T47D
[15] = test system: TK-10
[16] = test system: SNB-75
[17] = test system: HL-60
[18] = test system: IGROV-1
[19] = test system: MOLT-4
[20] = test system: NCI-H226
[21] = test system: SF-295
[22] = test system: UACC-257
[23] = test system: UACC-62
[24] = test system: KM12
[25] = test system: ACHN
[26] = test system: EKVX
[27] = test system: MCF7
[28] = test system: K562
[29] = test system: DU-145
[30] = test system: PC-3
[31] = test system: Hs-578T
[32] = test system: NCI-H460
[33] = test system: CAKI-1
[34] = test system: OVCAR-4
[35] = test system: HT-29
[36] = test system: HOP-62
[37] = test system: Malme-3M
[38] = test system: OVCAR-5
[39] = test system: SF-268
[40] = test system: HCC 2998
[41] = test system: MDA-MB-435
[42] = test system: CCRF-CEM
[43] = test system: SF-539
[44] = test system: HCT-116
[45] = test system: LOX IMVI
[46] = test system: SK-OV-3
[47] = test system: 786-0
[48] = test system: RXF 393
[49] = test system: SNB-19
[50] = test system: MDA-MB-231
[51] = test system: M14
[52] = test system: SW-620
[53] = test system: A549

**Q.** For O=C(CCC(NC(=O)OCc1ccccc1)C(=O)OCc1ccccc1)Nc1cccc(OCc2ccccc2)c1 (stereo not drawn), which GI50 [1] is on record?
**A.** 40.4 µM (inactive)

**Q.** What about the GI50 [2] of the same compound?
**A.** 22.3 µM (inactive)

**Q.** What about the GI50 [3] of the same compound?
**A.** 30.3 µM (inactive)

**Q.** What about the GI50 [4] of the same compound?
**A.** 18.5 µM (inactive)

**Q.** And the GI50 [5]?
**A.** 32.1 µM (inactive)

**Q.** And the GI50 [6]?
**A.** 25 µM (inactive)

**Q.** And the GI50 [7]?
**A.** 20.3 µM (inactive)

**Q.** What about the GI50 [8] of the same compound?
**A.** 18.3 µM

**Q.** What about the GI50 [9] of the same compound?
**A.** 20.2 µM (inactive)

**Q.** And the GI50 [10]?
**A.** 15.7 µM (inactive)

**Q.** And the GI50 [11]?
**A.** 36.2 µM (inactive)

**Q.** What about the GI50 [12] of the same compound?
**A.** 18.7 µM (inactive)

**Q.** What about the GI50 [13] of the same compound?
**A.** 26.5 µM (inactive)

**Q.** And the GI50 [14]?
**A.** 19.5 µM (inactive)

**Q.** What about the GI50 [15] of the same compound?
**A.** 29.4 µM (inactive)

**Q.** And the GI50 [16]?
**A.** 35.6 µM (inactive)

**Q.** What about the GI50 [17] of the same compound?
**A.** 15.4 µM (inactive)

**Q.** And the GI50 [18]?
**A.** 30.3 µM (inactive)

**Q.** And the GI50 [19]?
**A.** 26.4 µM (inactive)

**Q.** What about the GI50 [20] of the same compound?
**A.** 29.1 µM (inactive)

**Q.** What about the GI50 [21] of the same compound?
**A.** 59.6 µM (inactive)

**Q.** What about the GI50 [22] of the same compound?
**A.** 23.7 µM (inactive)

**Q.** What about the GI50 [23] of the same compound?
**A.** 32.8 µM (inactive)

**Q.** And the GI50 [24]?
**A.** 34.8 µM (inactive)

**Q.** And the GI50 [25]?
**A.** 29.7 µM (inactive)

**Q.** And the GI50 [26]?
**A.** 35.6 µM (inactive)

**Q.** And the GI50 [27]?
**A.** 20.7 µM (inactive)

**Q.** And the GI50 [28]?
**A.** 24.2 µM (inactive)

**Q.** What about the GI50 [29] of the same compound?
**A.** 28.4 µM (inactive)

**Q.** And the GI50 [30]?
**A.** 13.2 µM (inactive)

**Q.** What about the GI50 [31] of the same compound?
**A.** 18.4 µM (inactive)

**Q.** What about the GI50 [32] of the same compound?
**A.** 23.6 µM (inactive)

**Q.** What about the GI50 [33] of the same compound?
**A.** 31.2 µM (inactive)

**Q.** And the GI50 [34]?
**A.** 30.2 µM (inactive)

**Q.** What about the GI50 [35] of the same compound?
**A.** 29.9 µM (inactive)

**Q.** And the GI50 [36]?
**A.** 28.6 µM (inactive)

**Q.** And the GI50 [37]?
**A.** 14.5 µM (inactive)

**Q.** And the GI50 [38]?
**A.** 28.6 µM (inactive)

**Q.** What about the GI50 [39] of the same compound?
**A.** 28.6 µM (inactive)

**Q.** What about the GI50 [40] of the same compound?
**A.** 42.7 µM (inactive)

**Q.** What about the GI50 [41] of the same compound?
**A.** 20 µM (inactive)

**Q.** What about the GI50 [42] of the same compound?
**A.** 27.3 µM (inactive)

**Q.** And the GI50 [43]?
**A.** 19.2 µM (inactive)

**Q.** And the GI50 [44]?
**A.** 19.2 µM (inactive)

**Q.** And the GI50 [45]?
**A.** 19.3 µM (inactive)

**Q.** And the GI50 [46]?
**A.** 67.3 µM (inactive)

**Q.** What about the GI50 [47] of the same compound?
**A.** 17.7 µM (inactive)

**Q.** What about the GI50 [48] of the same compound?
**A.** 23.8 µM (inactive)

**Q.** And the GI50 [49]?
**A.** 51.3 µM (inactive)

**Q.** What about the GI50 [50] of the same compound?
**A.** 25.4 µM (inactive)

**Q.** And the GI50 [51]?
**A.** 20.4 µM (inactive)

**Q.** And the GI50 [52]?
**A.** 33.6 µM (inactive)

**Q.** And the GI50 [53]?
**A.** 35.7 µM (inactive)

From ChEMBL document CHEMBL1201862, “PubChem BioAssay data set” (2004)
